≈ marks a conversion by molar mass, not a printed value.
Test system: KB
Assay: Cytotoxicity against human KB cells
Assay type: functional
Details: read-out: ED50 (the source's name)

SMILES: COC1=CC(=O)C=C(OC)C1=O [2,6-DIMETHOXYQUINONE]
- EC50: 3.1 µg/mL (≈ 18.4 µM)

Reference: ChEMBL document CHEMBL1151371, “Plant Anticancer Agents. XI. 2,6-Dimethoxybenzoquinone as a Cytotoxic Constituent of Tibouchina pulchra” (1981)
